Our source for the IC50 values is patent US20260325533A1, “CDK INHIBITOR COMPOUNDS” (ALEKSIA THERAPEUTICS, INC., priority 2023, published 2026).

Holding throughout (type): biochemical
For one test, the target named is CDK1/CCNB1 (Homo sapiens, UniProt P06493). Nature of the test: CDK1 homogeneous time-resolved fluorescence (HTRF) kinase assay. Conditions: CDK1/CCNB. The essentials:
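High-ATP (1 mM) HTRF assay with 0.5 nM CDK1/cyclin B1 and 50 nM ULight-4E-BP1 (Thr37/46) substrate, 60 min at 23 °C after 20-min compound preincubation. IC50 values come from dose-response curves.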
On the technique in general: Time-resolved FRET reads energy transfer from a long-lived donor to a nearby acceptor.

The next test deals with CDK6/CCND1 (Homo sapiens, UniProt Q00534). Kind of test: CDK6 homogeneous time-resolved fluorescence (HTRF) kinase assay. The settings on record: CDK6/CCND. The essentials:
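Assay conditions: HEPES buffer containing 10 mM MgCl2, 1 mM EGTA, 2 mM DTT, 0.01% Tween 20; 1 nM CDK6/CCND1, 50 nM peptide substrate, 1 mM ATP. Detection after 60 min reaction used 2 nM europium antibody with 340 nm excitation. Potency fitted from half-log series, 11 points.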

Another test has as its target CDK2/CCNE1 (Homo sapiens, UniProt P24941). Nature of the test: CDK2 homogeneous time-resolved fluorescence (HTRF) kinase assay. Conditions: CDK2/CCNE. The essentials: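 An HTRF format measures CDK2/CCNE1 (3 nM) phosphorylating a 4E-BP1 Thr37/46 peptide at high (1 mM) ATP. Reactions run one hour at 23 °C, then EDTA-quenched and probed with Eu-labelled phospho-specific antibody.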

Another test addresses CDK4/CCND3 (Homo sapiens, UniProt P11802). Nature of the test: CDK4 homogeneous time-resolved fluorescence (HTRF) kinase assay. The settings on record: CDK4/CCND. The method, boiled down: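 IC50s derive from Lance 665 nm or 665/615 nm signals in 11-point, half-log dose series (top 10 μM, 1% DMSO). The enzyme, 1.5 nM CDK4/CCND3, phosphorylates 50 nM ULight-4E-BP1 peptide with 1 mM ATP over 60 min at 23 °C.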

Setting [1] is: >250 nM marked x, read-out: CDK1/CCNB IC50 >250 nM.
[2] abbreviates: >250 nM marked x, read-out: CDK6/CCND IC50 >250 nM.
Where [3] appears, read: >250 nM marked x, read-out: CDK2/CCNE IC50 >250 nM.
Setting [4] is: 25-250 nM marked x, read-out: CDK4/CCND IC50 25-250 nM.
The mark [5] stands for this setting: 25-250 nM marked x, read-out: CDK6/CCND IC50 25-250 nM.
Setting [6] is: <25 nM, read-out: CDK2/CCNE IC50 <25 nM.
Where [7] appears, read: 25-250 nM marked x, read-out: CDK2/CCNE IC50 25-250 nM.
[8] abbreviates: >250 nM marked x, read-out: CDK4/CCND IC50 >250 nM.
Setting [9] is: x = IC50 >250 nM, read-out: CDK1/CCNB IC50 (>250 nM column).
Where [10] appears, read: x = IC50 >250 nM, read-out: CDK6/CCND IC50 (>250 nM column).
Setting [11] is: x = IC50 <25 nM, read-out: CDK2/CCNE IC50 (<25 nM).
Where [12] appears, read: x = IC50 >250 nM, read-out: CDK4/CCND IC50 (>250 nM column).

Molecules are shown by their SMILES. Where two headings read alike, the source gives them in different places. Bounds are passed on as bounds.

CDK4/CCND3, sequence (P11802 whole entry): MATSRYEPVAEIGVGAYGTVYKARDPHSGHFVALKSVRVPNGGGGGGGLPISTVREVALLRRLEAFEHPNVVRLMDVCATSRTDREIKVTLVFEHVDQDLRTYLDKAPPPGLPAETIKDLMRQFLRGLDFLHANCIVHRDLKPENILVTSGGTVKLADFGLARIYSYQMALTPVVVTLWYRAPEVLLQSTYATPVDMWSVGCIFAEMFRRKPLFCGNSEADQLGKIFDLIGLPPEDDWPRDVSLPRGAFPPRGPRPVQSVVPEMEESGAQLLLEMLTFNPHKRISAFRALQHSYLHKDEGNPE
CDK4/CCND3, sequence (P30281 whole entry partner): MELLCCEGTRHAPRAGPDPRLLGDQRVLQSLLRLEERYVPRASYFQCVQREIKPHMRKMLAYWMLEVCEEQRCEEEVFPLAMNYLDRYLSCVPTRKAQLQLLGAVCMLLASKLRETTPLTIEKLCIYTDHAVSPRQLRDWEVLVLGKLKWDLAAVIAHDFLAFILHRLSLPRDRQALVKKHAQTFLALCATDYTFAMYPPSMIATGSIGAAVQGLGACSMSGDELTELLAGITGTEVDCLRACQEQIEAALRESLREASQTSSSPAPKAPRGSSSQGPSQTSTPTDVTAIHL
CDK1/CCNB1, sequence (P06493 whole entry): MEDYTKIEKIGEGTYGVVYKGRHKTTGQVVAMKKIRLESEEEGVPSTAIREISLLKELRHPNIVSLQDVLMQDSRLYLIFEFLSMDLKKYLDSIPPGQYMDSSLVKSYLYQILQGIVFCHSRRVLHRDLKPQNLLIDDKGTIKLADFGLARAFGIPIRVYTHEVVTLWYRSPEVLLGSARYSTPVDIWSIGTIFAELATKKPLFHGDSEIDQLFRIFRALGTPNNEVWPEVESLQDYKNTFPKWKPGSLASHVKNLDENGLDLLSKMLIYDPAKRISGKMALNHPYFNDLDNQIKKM
CDK1/CCNB1, sequence (P14635 whole entry partner): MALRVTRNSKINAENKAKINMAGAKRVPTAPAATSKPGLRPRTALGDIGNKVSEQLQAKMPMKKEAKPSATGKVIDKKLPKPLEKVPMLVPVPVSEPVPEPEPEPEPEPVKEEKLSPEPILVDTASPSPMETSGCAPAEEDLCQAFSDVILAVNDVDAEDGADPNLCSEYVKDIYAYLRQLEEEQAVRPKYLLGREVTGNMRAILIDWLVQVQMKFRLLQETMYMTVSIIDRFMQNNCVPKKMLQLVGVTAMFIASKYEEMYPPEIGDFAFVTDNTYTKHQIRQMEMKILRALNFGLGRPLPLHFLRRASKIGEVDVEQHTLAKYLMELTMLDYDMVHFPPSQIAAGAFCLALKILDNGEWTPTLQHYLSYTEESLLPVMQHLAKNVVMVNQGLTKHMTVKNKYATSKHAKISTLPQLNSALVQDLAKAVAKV
CDK6/CCND1, sequence (Q00534 whole entry): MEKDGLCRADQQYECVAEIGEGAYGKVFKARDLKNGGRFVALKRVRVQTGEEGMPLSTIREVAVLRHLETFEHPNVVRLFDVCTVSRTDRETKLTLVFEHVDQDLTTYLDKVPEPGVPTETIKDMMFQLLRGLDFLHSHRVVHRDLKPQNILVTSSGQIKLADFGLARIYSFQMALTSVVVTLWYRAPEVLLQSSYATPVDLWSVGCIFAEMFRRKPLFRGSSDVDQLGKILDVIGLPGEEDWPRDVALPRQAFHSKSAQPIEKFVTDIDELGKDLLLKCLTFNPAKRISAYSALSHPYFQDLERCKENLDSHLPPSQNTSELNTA
CDK6/CCND1, sequence (P24385 whole entry partner): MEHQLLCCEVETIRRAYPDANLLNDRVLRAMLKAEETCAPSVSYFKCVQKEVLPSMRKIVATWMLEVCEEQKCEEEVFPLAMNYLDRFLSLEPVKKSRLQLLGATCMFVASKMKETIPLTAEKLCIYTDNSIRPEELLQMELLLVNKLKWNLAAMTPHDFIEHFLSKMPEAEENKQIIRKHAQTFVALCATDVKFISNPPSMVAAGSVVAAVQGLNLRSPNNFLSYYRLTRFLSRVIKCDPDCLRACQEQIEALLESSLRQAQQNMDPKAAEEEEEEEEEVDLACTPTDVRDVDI

Consider `CN(C)C/C=C/S(=O)(=O)c1ccc(Nc2cc3c(N4CCC(C#N)CC4)nccc3cn2)cc1` [Ex 249, (E)-1-(7-((4-((3-(dimethylamino)prop-1-en-1-yl)sulfonyl)phenyl)amino)-2,6-naphthyridin-1-yl)piperidine-4-carbonitrile], for which the IC50 is > 250 nM on CDK1/CCNB1 (setting [1]), > 250 nM on CDK6/CCND1 (setting [2]), > 250 nM on CDK2/CCNE1 (setting [3]) and 25 to 250 nM at CDK4/CCND3 (setting [4]).

Take `Cc1c(-c2nccc3cnc(Nc4ccc(S(C)(=O)=O)cc4)cc23)ccc2nn(CC(N)=O)cc12` [Ex 250, 2-(4-methyl-5-(7-((4-(methylsulfonyl)phenyl)amino)-2,6-naphthyridin-1-yl)-2H-indazol-2-yl)acetamide]: the IC50 was > 250 nM at CDK1/CCNB1 (setting [1]), 25 to 250 nM on CDK6/CCND1 (setting [5]), < 25 nM at CDK2/CCNE1 (setting [6]) and 25 to 250 nM at CDK4/CCND3 (setting [4]).

With `CS(=O)(=O)N1CCC(Nc2cc3c(C#Cc4ccc(C#N)cc4)nccc3cn2)CC1` [Ex 251, 4-((7-((1-(methylsulfonyl)piperidin-4-yl)amino)-2,6-naphthyridin-1-yl)ethynyl)benzonitrile], the IC50 is > 250 nM on CDK1/CCNB1 (setting [1]); 25 to 250 nM at CDK6/CCND1 (setting [5]); < 25 nM at CDK2/CCNE1 (setting [6]); < 25 nM on CDK4/CCND3 (<25 nM, read-out: CDK4/CCND IC50 <25 nM).

Regarding `O=C(O)c1ccc(Nc2cc3c(C4=CCCCC4)nccc3cn2)cc1` [Ex 253, 4-((5-(cyclohex-1-en-1-yl)-2,6-naphthyridin-3-yl)amino)benzoic acid], the IC50 on CDK1/CCNB1 (setting [1]) is > 250 nM; on CDK6/CCND1 (setting [5]), 25 to 250 nM; on CDK2/CCNE1 (setting [6]), < 25 nM; on CDK4/CCND3 (setting [4]), 25 to 250 nM.

Regarding `Cc1c(-c2nccc3cnc(Nc4ccc(S(C)(=O)=O)cc4)cc23)ccc2c1cnn2CCO` [Ex 267, 2-(4-methyl-5-(7-((4-(methylsulfonyl)phenyl)amino)-2,6-naphthyridin-1-yl)-1H-indazol-1-yl)ethan-1-ol], the IC50 on CDK1/CCNB1 (25-250 nM marked x, read-out: CDK1/CCNB IC50 25-250 nM) is 25 to 250 nM; at CDK6/CCND1 (setting [5]) it was 25 to 250 nM; at CDK2/CCNE1 (setting [6]) it was < 25 nM; on CDK4/CCND3 (setting [4]) it was 25 to 250 nM.

As for `CCC1(CC)C(=O)Nc2cc(C#Cc3nccc4cnc(Nc5ccc(S(=O)(=O)C6CC(F)(F)C6)cc5OC)cc34)ccc21` [Ex 277, 6-((7-((4-((3,3-difluorocyclobutyl)sulfonyl)-2-methoxyphenyl)amino)-2,6-naphthyridin-1-yl)ethynyl)-3,3-diethylindolin-2-one], the IC50 was > 250 nM at CDK1/CCNB1 (setting [1]), > 250 nM on CDK6/CCND1 (setting [2]), 25 to 250 nM at CDK2/CCNE1 (setting [7]) and > 250 nM at CDK4/CCND3 (setting [8]).

With `O=C1Nc2cc(C#Cc3nccc4cnc(Nc5ccc(S(=O)(=O)CC(F)(F)F)cc5)cc34)ccc2C12CC2` [Ex 282, 6'-((7-((4-((2,2,2-trifluoroethyl)sulfonyl)phenyl)amino)-2,6-naphthyridin-1-yl)ethynyl)spiro[cyclopropane-1,3'-indolin]-2'-one], the IC50 at CDK1/CCNB1 (setting [1]) was > 250 nM; on CDK6/CCND1 (setting [2]) it was > 250 nM; at CDK2/CCNE1 (setting [6]), < 25 nM; at CDK4/CCND3 (setting [8]), > 250 nM.

Turning to `CCC1(CC)C(=O)Nc2cc(C#Cc3nccc4cnc(Nc5ccc(S(=O)(=O)CC(F)(F)F)cc5F)cc34)ccc21` [Ex 283, 3,3-diethyl-6-((7-((2-fluoro-4-((2,2,2-trifluoroethyl)sulfonyl)phenyl)amino)-2,6-naphthyridin-1-yl)ethynyl)indolin-2-one], the IC50 on CDK1/CCNB1 (setting [1]), on CDK6/CCND1 (setting [2]), on CDK2/CCNE1 (setting [3]) and at CDK4/CCND3 (setting [8]) was > 250 nM in each case.

In the case of `CCC1(CC)C(=O)Nc2cc(C#Cc3nccc4cnc(Nc5ccc(S(=O)(=O)CC(F)(F)F)cc5C)cc34)ccc21` [Ex 286, 3,3-diethyl-6-((7-((2-methyl-4-((2,2,2-trifluoroethyl)sulfonyl)phenyl)amino)-2,6-naphthyridin-1-yl)ethynyl)indolin-2-one], the IC50 on CDK1/CCNB1 (setting [1]) was > 250 nM; on CDK6/CCND1 (setting [2]), > 250 nM; on CDK2/CCNE1 (setting [7]), 25 to 250 nM; at CDK4/CCND3 (setting [8]), > 250 nM.

Consider `CC1(C)C(=O)Nc2cc(C#Cc3nccc4cnc(Nc5ccc(S(C)(=O)=O)cc5C(F)F)cc34)ccc21` [Ex 312, 6-((7-((2-(difluoromethyl)-4-(methylsulfonyl)phenyl)amino)-2,6-naphthyridin-1-yl)ethynyl)-3,3-dimethylindolin-2-one], for which the IC50 was > 250 nM on CDK1/CCNB1 (setting [1]), > 250 nM on CDK6/CCND1 (setting [2]), < 25 nM at CDK2/CCNE1 (setting [6]) and > 250 nM on CDK4/CCND3 (setting [8]).

In the case of `CCC1(CC)C(=O)Nc2cc(C#Cc3nccc4cnc(Nc5ccc(S(=O)(=O)C(C)C)cc5OC)cc34)ccc21` [Ex 338, 3,3-diethyl-6-((7-((4-(isopropylsulfonyl)-2-methoxyphenyl)amino)-2,6-naphthyridin-1-yl)ethynyl)indolin-2-one], the IC50 at CDK1/CCNB1 (setting [1]) is > 250 nM; on CDK6/CCND1 (setting [2]) it was > 250 nM; on CDK2/CCNE1 (setting [7]), 25 to 250 nM; on CDK4/CCND3 (setting [8]), > 250 nM.

With `Cc1cc(S(C)(=O)=O)ccc1Nc1cc2c(C#Cc3cc4c(cc3F)C(C)(C)C(=O)N4)nccc2cn1` [Ex 342, 5-fluoro-3,3-dimethyl-6-((7-((2-methyl-4-(methylsulfonyl)phenyl)amino)-2,6-naphthyridin-1-yl)ethynyl)indolin-2-one], the IC50 was > 250 nM on CDK1/CCNB1 (setting [1]), > 250 nM at CDK6/CCND1 (setting [2]), < 25 nM at CDK2/CCNE1 (setting [6]) and > 250 nM on CDK4/CCND3 (setting [8]).

As to `Cc1cc(S(C)(=O)=O)ccc1Nc1cc2c(C#Cc3ccc4c(c3)NC(=O)C43CC3)nccc2cn1` [Ex 351, 6'-((7-((2-methyl-4-(methylsulfonyl)phenyl)amino)-2,6-naphthyridin-1-yl)ethynyl)spiro[cyclopropane-1,3'-indolin]-2'-one], the IC50 on CDK1/CCNB1 (setting [9]) is > 250 nM; at CDK6/CCND1 (setting [10]), > 250 nM; at CDK2/CCNE1 (setting [11]), < 25 nM; on CDK4/CCND3 (setting [12]), > 250 nM.

For the molecule `CC1(C)C(=O)Nc2cc(C#Cc3nccc4cnc(Nc5ccc(S(C)(=O)=O)cc5C(F)(F)F)cc34)ccc21` [Ex 352, 3,3-dimethyl-6-((7-((4-(methylsulfonyl)-2-(trifluoromethyl)phenyl)amino)-2,6-naphthyridin-1-yl)ethynyl)indolin-2-one], the IC50 is > 250 nM at CDK1/CCNB1 (setting [9]); > 250 nM at CDK6/CCND1 (setting [10]); > 250 nM on CDK2/CCNE1 (x = IC50 >250 nM, read-out: CDK2/CCNE IC50 (>250 nM column)); > 250 nM on CDK4/CCND3 (setting [12]).

In the case of `CCS(=O)(=O)c1ccc(Nc2cc3c(C#Cc4ccc5c(c4)NC(=O)C54CC4)nccc3cn2)c(C)c1` [Ex 356, 6'-((7-((4-(ethylsulfonyl)-2-methylphenyl)amino)-2,6-naphthyridin-1-yl)ethynyl)spiro[cyclopropane-1,3'-indolin]-2'-one], the IC50 at CDK1/CCNB1 (x = IC50 25-250 nM, read-out: CDK1/CCNB IC50 (25-250 nM)) is 25 to 250 nM; at CDK6/CCND1 (setting [10]), > 250 nM; on CDK2/CCNE1 (setting [11]), < 25 nM; at CDK4/CCND3 (setting [12]) it was > 250 nM.

Take `CCS(=O)(=O)c1ccc(Nc2cc3c(C#Cc4ccc5c(c4)NC(=O)C54CC4)nccc3cn2)c(OC)c1` [Ex 357, 6'-((7-((4-(ethylsulfonyl)-2-methoxyphenyl)amino)-2,6-naphthyridin-1-yl)ethynyl)spiro[cyclopropane-1,3'-indolin]-2'-one]: the IC50 on CDK1/CCNB1 (setting [9]) is > 250 nM; on CDK6/CCND1 (setting [10]) it was > 250 nM; at CDK2/CCNE1 (setting [11]), < 25 nM; at CDK4/CCND3 (setting [12]), > 250 nM.

In the case of `COc1cc(S(C)(=O)=O)ccc1Nc1cc2c(C#Cc3ccc4c(c3)NC(=O)C43CCC3)nccc2cn1` [Ex 361, 6'-((7-((2-methoxy-4-(methylsulfonyl)phenyl)amino)-2,6-naphthyridin-1-yl)ethynyl)spiro[cyclobutane-1,3'-indolin]-2'-one], the IC50 was > 250 nM at CDK1/CCNB1 (setting [9]), > 250 nM on CDK6/CCND1 (setting [10]), < 25 nM at CDK2/CCNE1 (setting [11]) and > 250 nM at CDK4/CCND3 (setting [12]).
